From the NIST ThermoML archive (doi:10.1007/s10765-010-0737-5)
Numbers after ± are expanded uncertainties.

Assay: xn = mol fraction of the nth substance listed
Settings: Liquid; for viscosity: 101 kPa, Capillary tube (Ostwald / Ubbelohde) method; for mass density: 101.3 kPa

CC(C)(C)Cl [2-chloro-2-methylpropane] + CC(C)OC(C)C
Settings | mass density [kg/m3] | viscosity [mPa·s]
283.15 K, x1 = 0.049 | 738.51 ± 0.91 | 0.3693 ± 0.004
283.15 K, x1 = 0.0996 | 743.477 ± 0.9 | 0.3746 ± 0.0041
283.15 K, x1 = 0.1991 | 753.625 ± 0.88 | 0.386 ± 0.0042
283.15 K, x1 = 0.3212 | 766.738 ± 0.85 | 0.4025 ± 0.0043
283.15 K, x1 = 0.4189 | 777.752 ± 0.83 | 0.4183 ± 0.0044
283.15 K, x1 = 0.5148 | 789.053 ± 0.81 | 0.4365 ± 0.0046
283.15 K, x1 = 0.6213 | 802.211 ± 0.78 | 0.4606 ± 0.0048
283.15 K, x1 = 0.7152 | 814.386 ± 0.75 | 0.4862 ± 0.005
283.15 K, x1 = 0.8138 | 827.842 ± 0.73 | 0.5182 ± 0.0053
283.15 K, x1 = 0.9079 | 841.347 ± 0.7 | 0.555 ± 0.0056
283.15 K, x1 = 0.9552 | 848.401 ± 0.68 | 0.5761 ± 0.0058
283.15 K, x1 = 1 | 855.249 ± 0.67 | 0.598 ± 0.006
288.15 K, x1 = 0.049 | 733.338 ± 0.92 | 0.3531 ± 0.0039
288.15 K, x1 = 0.0996 | 738.271 ± 0.91 | 0.358 ± 0.0039
288.15 K, x1 = 0.1991 | 748.35 ± 0.89 | 0.3683 ± 0.004
288.15 K, x1 = 0.3212 | 761.373 ± 0.86 | 0.3827 ± 0.0041
288.15 K, x1 = 0.4189 | 772.308 ± 0.84 | 0.3963 ± 0.0043
288.15 K, x1 = 0.5148 | 783.527 ± 0.82 | 0.412 ± 0.0044
288.15 K, x1 = 0.6213 | 796.59 ± 0.79 | 0.4328 ± 0.0046
288.15 K, x1 = 0.7152 | 808.683 ± 0.77 | 0.4549 ± 0.0048
288.15 K, x1 = 0.8138 | 822.038 ± 0.74 | 0.4829 ± 0.005
288.15 K, x1 = 0.9079 | 835.446 ± 0.71 | 0.5154 ± 0.0053
288.15 K, x1 = 0.9552 | 842.442 ± 0.7 | 0.5342 ± 0.0054
288.15 K, x1 = 1 | 849.243 ± 0.68 | 0.5538 ± 0.0056
293.15 K, x1 = 0.049 | 728.121 ± 0.93 | 0.3381 ± 0.0038
293.15 K, x1 = 0.0996 | 733.024 ± 0.92 | 0.3425 ± 0.0038
293.15 K, x1 = 0.1991 | 743.024 ± 0.9 | 0.3515 ± 0.0039
293.15 K, x1 = 0.3212 | 755.959 ± 0.87 | 0.3641 ± 0.004
293.15 K, x1 = 0.4189 | 766.815 ± 0.85 | 0.376 ± 0.0041
293.15 K, x1 = 0.5148 | 777.959 ± 0.83 | 0.3894 ± 0.0042
293.15 K, x1 = 0.6213 | 790.929 ± 0.8 | 0.4075 ± 0.0044
293.15 K, x1 = 0.7152 | 802.935 ± 0.78 | 0.4268 ± 0.0045
293.15 K, x1 = 0.8138 | 816.186 ± 0.75 | 0.4512 ± 0.0047
293.15 K, x1 = 0.9079 | 829.489 ± 0.72 | 0.4796 ± 0.005
293.15 K, x1 = 0.9552 | 836.437 ± 0.71 | 0.4962 ± 0.0051
293.15 K, x1 = 1 | 843.191 ± 0.69 | 0.5135 ± 0.0053
298.15 K, x1 = 0.049 | 722.867 ± 0.94 | 0.3217 ± 0.0036
298.15 K, x1 = 0.0996 | 727.738 ± 0.93 | 0.3258 ± 0.0037
298.15 K, x1 = 0.1991 | 737.666 ± 0.91 | 0.3342 ± 0.0037
298.15 K, x1 = 0.3212 | 750.506 ± 0.88 | 0.3458 ± 0.0038
298.15 K, x1 = 0.4189 | 761.288 ± 0.86 | 0.3564 ± 0.0039
298.15 K, x1 = 0.5148 | 772.351 ± 0.84 | 0.3686 ± 0.004
298.15 K, x1 = 0.6213 | 785.231 ± 0.81 | 0.3845 ± 0.0042
298.15 K, x1 = 0.7152 | 797.145 ± 0.79 | 0.4014 ± 0.0043
298.15 K, x1 = 0.8138 | 810.301 ± 0.76 | 0.4229 ± 0.0045
298.15 K, x1 = 0.9079 | 823.502 ± 0.73 | 0.4476 ± 0.0047
298.15 K, x1 = 0.9552 | 830.397 ± 0.72 | 0.4619 ± 0.0048
298.15 K, x1 = 1 | 837.096 ± 0.71 | 0.4768 ± 0.0049
303.15 K, x1 = 0.049 | 717.578 ± 0.95 | 0.304 ± 0.0035
303.15 K, x1 = 0.0996 | 722.412 ± 0.94 | 0.308 ± 0.0035
303.15 K, x1 = 0.1991 | 732.264 ± 0.92 | 0.3164 ± 0.0036
303.15 K, x1 = 0.3212 | 745.013 ± 0.9 | 0.3277 ± 0.0037
303.15 K, x1 = 0.4189 | 755.716 ± 0.87 | 0.3379 ± 0.0038
303.15 K, x1 = 0.5148 | 766.702 ± 0.85 | 0.3492 ± 0.0039
303.15 K, x1 = 0.6213 | 779.484 ± 0.82 | 0.3639 ± 0.004
303.15 K, x1 = 0.7152 | 791.308 ± 0.8 | 0.3791 ± 0.0041
303.15 K, x1 = 0.8138 | 804.365 ± 0.77 | 0.3979 ± 0.0043
303.15 K, x1 = 0.9079 | 817.467 ± 0.75 | 0.4191 ± 0.0045
303.15 K, x1 = 0.9552 | 824.312 ± 0.73 | 0.4313 ± 0.0046
303.15 K, x1 = 1 | 830.958 ± 0.72 | 0.4438 ± 0.0047
308.15 K, x1 = 0.049 | 712.24 ± 0.96 | 0.2892 ± 0.0034
308.15 K, x1 = 0.0996 | 717.039 ± 0.95 | 0.2928 ± 0.0034
308.15 K, x1 = 0.1991 | 726.821 ± 0.93 | 0.3006 ± 0.0034
308.15 K, x1 = 0.3212 | 739.479 ± 0.91 | 0.3115 ± 0.0035
308.15 K, x1 = 0.4189 | 750.102 ± 0.89 | 0.3216 ± 0.0036
308.15 K, x1 = 0.5148 | 761.005 ± 0.86 | 0.3327 ± 0.0037
308.15 K, x1 = 0.6213 | 773.688 ± 0.84 | 0.3468 ± 0.0038
308.15 K, x1 = 0.7152 | 785.436 ± 0.81 | 0.3613 ± 0.004
308.15 K, x1 = 0.8138 | 798.392 ± 0.79 | 0.3787 ± 0.0041
308.15 K, x1 = 0.9079 | 811.393 ± 0.76 | 0.398 ± 0.0043
308.15 K, x1 = 0.9552 | 818.179 ± 0.74 | 0.4087 ± 0.0044
308.15 K, x1 = 1 | 824.772 ± 0.73 | 0.4196 ± 0.0045
313.15 K, x1 = 0.049 | 706.856 ± 0.97 | 0.2751 ± 0.0032
313.15 K, x1 = 0.0996 | 711.61 ± 0.96 | 0.2783 ± 0.0033
313.15 K, x1 = 0.1991 | 721.328 ± 0.94 | 0.2856 ± 0.0033
313.15 K, x1 = 0.3212 | 733.893 ± 0.92 | 0.2963 ± 0.0034
313.15 K, x1 = 0.4189 | 744.44 ± 0.9 | 0.3061 ± 0.0035
313.15 K, x1 = 0.5148 | 755.257 ± 0.88 | 0.3171 ± 0.0036
313.15 K, x1 = 0.6213 | 767.848 ± 0.85 | 0.3306 ± 0.0037
313.15 K, x1 = 0.7152 | 779.502 ± 0.82 | 0.3436 ± 0.0038
313.15 K, x1 = 0.8138 | 792.362 ± 0.8 | 0.3586 ± 0.0039
313.15 K, x1 = 0.9079 | 805.256 ± 0.77 | 0.3741 ± 0.0041
313.15 K, x1 = 0.9552 | 811.996 ± 0.76 | 0.3824 ± 0.0041
313.15 K, x1 = 1 | 818.536 ± 0.74 | 0.3904 ± 0.0042
